From patent US20240361317A1, “PROBES BASED ON VOLATILE ORGANIC COMPOUNDS AND USES THEREOF FOR THE DIAGNOSIS AND PROGNOSIS OF PATHOLOGICAL CONDITIONS” (Centre National de la Recherche Scientifique, priority 2021, published 2024)

Key:
[1] = Spontaneous hydrolysis of probes in buffer solution / during the reaction; format: physicochemical; conditions: acetate buffer, maximum concentration
Experimental: According to the plasma protocol described above, the probes were used to detect the six enzymatic activities in these samples. To summarize, an aliquot of 25 μL of plasma will be sampled and inserted into a 2 mL vial with an insert. This biological sample was added from 61.4 μL buffer solution (pH 5), 3.6 μL of protease inhibitor (1×) and 10 μL of one or the other of the cocktails. After hermetic closure and agitation to the vortex of the vial, an SPME (SPME in semi-polar phase of the Car/PDMS, 1 cm long and 75 μm thick type with a 24 ga needle, Supelco) of the gas phase above the sample of a duration of 30 min will be carried out after 2 h, 4 h and 7 h of reaction. Each kinetic point requires a vial reaction, and was carried out in duplicate. The VOCs trapped on the SPME fiber are then analyzed by GC-TQMS according to the parameters defined in Tables 4 and 5. Blank cocktails (cocktails in acetate buffer with no plasma) and plasma blanks (plasmas with an acetate buffer without cocktail) were carried out every day of analysis.
The responses of the probes in the plasma samples were compared to their responses in so-called “blank” samples and corresponding to the probes added to the acetate buffer alone.

β-glucuronidase [2] = biological target: β-glucuronidase (Escherichia coli, UniProt P05804); assay: Specificity study: hydrolysis of probes by the enzyme; format: biochemical
Sequence of β-glucuronidase (Escherichia coli, UniProt P05804) (P05804 whole entry, the tested form may be a part): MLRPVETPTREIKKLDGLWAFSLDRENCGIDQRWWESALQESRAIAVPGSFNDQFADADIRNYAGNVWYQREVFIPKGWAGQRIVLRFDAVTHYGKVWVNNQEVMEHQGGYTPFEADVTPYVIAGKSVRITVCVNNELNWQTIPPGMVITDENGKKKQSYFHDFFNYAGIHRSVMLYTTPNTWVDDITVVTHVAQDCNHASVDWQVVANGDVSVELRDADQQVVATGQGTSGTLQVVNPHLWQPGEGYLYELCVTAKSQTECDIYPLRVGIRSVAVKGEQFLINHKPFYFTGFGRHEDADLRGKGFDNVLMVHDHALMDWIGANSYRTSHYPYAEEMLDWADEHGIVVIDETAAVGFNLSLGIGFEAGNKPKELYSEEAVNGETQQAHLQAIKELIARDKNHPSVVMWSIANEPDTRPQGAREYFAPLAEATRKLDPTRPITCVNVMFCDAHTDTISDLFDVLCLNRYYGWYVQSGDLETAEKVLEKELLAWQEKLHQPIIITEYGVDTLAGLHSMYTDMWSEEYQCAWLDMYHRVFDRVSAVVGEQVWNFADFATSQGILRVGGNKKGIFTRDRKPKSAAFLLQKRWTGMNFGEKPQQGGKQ
Experimental: (§1) The detection performances of this compound in the presence of ethanol and ethanol-D5 were then verified. […] The detection ranges of ethanol-D5 and ethanol-^13C-D5 were then carried out under SPME sampling conditions developed for biological samples (30 min of sampling at 30° C.). The two isotopes were present in mixtures in solution. The limits of detection obtained are respectively […]. The SPME-GC-TQMS method therefore allows a sharp differentiation of the two isotopes according to their mass fragmentation. An experimental study was then carried out in order to evaluate the affinity of the D5-ethyl-β-D-glucuronide and ^13C-D5-ethyl-N-acetylglucosamine for their respective enzyme (β-glucuronidase and N-acetyl glucosaminidase). For this, the efficacy of hydrolysis of each of these enzymes was studied in the presence of their respective probe (FIG. 6) then in the presence of the substrate probe of its partner (FIG. 7). […] In the presence of the two substrates, each enzyme gives a signal only for the probe specific to it (FIG. 8).

N-acetyl glucosaminidase = assay: as above; format: biochemical
Experimental: as §1

[3] = biological target: T1, β-glucuronidase of E. coli (Escherichia coli, UniProt P05804); assay: Limit of detection of model β-glucuronidase in plasma matrix with the VOC probe (SPME, GC-TQMS of ethanol-D5); format: biochemical
T1 construct: purchased Sigma Aldrich
T1 sequence (P05804 whole entry): as the sequence (P05804 whole entry, the tested form may be a part) above
Experimental: (§2) The plasma (approximately […]) is extracted and stored at −20° C. until analysis. An aliquot of 25 μL of plasma is sampled and inserted into a […] with an insert. This biological sample is added to 50 μL of acetate buffer solution (pH 5), protease inhibitor (1×) and 25 μL probe D5-ethyl-β-D-glucuronide at […]. After hermetic closure and agitation to the vortex of the vial, an SPME (SPME in semi-polar phase of the Car/PDMS, 1 cm long and 75 μm thick type with a 24 ga needle; Supelco) of the gas phase above the sample of a duration of 30 mi is carried out after 2 h, 4 h and 7 h of reaction. Each kinetic point requires a vial reaction, and is carried out in duplicate. The VOCs trapped on the SPME fiber are then analyzed by G-TQMS. GC-TMS detection of the ethanol isotopes (thus including ethanol-D5) is carried out with gas chromatography coupled to a triple quadrupole equipped with an E1 source (TSQ 9000, Thermo Fisher Scientific). The system is controlled by the software TSQ 9000 and the results are analyzed with the Xcalibur software (Thermo Fisher Scientific).
The limit of detection (LOD) of a model enzyme (β-glucuronidase of E. coli; liquid solution 50% glycerol, 140 U·mL^−1; Sigma Aldrich) in plasma matrix in the presence of probe D5-ethyl-β-D-glucuronide was then determined. For this, a plasma sample for which the activity of endogenous β-glucuronidase was not detectable, was added to enzyme concentrations ranging from […] to 1.10^−13 mol·L ^−1. The amount of ethanol-D5 released was monitored before adding probe and then after 2.5, 4.5 and 7.5 h of reaction at 30° C.

β-glucuronidase [4] = biological target: T2, β-glucuronidase (Homo sapiens, UniProt P08236); assay: Plasma protocol: labeled ethanol released in headspace of plasma after adding probe; format: biochemical
T2 construct: from tissue; host or cells: human blood plasma
T2 sequence (P08236 23-651): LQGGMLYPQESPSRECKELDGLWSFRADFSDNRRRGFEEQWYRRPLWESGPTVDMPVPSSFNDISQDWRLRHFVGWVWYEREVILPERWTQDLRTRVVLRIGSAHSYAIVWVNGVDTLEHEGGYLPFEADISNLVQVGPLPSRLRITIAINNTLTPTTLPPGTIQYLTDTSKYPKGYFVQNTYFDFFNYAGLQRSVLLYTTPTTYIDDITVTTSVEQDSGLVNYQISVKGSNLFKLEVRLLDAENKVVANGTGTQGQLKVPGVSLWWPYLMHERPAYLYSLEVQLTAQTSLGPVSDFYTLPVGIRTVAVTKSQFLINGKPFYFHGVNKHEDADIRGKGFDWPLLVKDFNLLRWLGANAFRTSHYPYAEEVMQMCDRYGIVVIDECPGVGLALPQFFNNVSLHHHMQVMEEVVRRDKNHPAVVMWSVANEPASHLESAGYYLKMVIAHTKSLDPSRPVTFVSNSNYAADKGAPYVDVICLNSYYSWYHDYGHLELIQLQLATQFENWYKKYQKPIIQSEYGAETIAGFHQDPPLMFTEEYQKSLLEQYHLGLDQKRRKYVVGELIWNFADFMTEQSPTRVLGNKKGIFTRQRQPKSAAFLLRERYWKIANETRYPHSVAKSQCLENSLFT
Experimental: as §2
Blood samples were taken by the caregiver associated with the oncological service, then collected and pretreated with the CIC. This study included samples of plasma taken from 11 patients suffering from breast cancer and 11 patients suffering from lung cancer.
These patients were diagnosed, but had at the time of sampling not yet received treatment. Their response was compared to that obtained from the plasma of 4 healthy patients. The results were compared to an experimental blank wherein the probe was added, but the enzyme was not present (FIG. 3). […]
After adding the 4 probes (according to the above protocol), the quantity of the 4 isotopes of the ethanol released above the samples of the patients was measured over time. […]
(§3) According to the plasma protocol described above, the probes were used to detect the six enzymatic activities in these samples. […] The VOCs trapped on the SPME fiber are then analyzed by GC-TQMS according to the parameters defined in Tables 4 and 5. […]

[5] = system: β-glucuronidase present in the extracellular matrix; assay: Ethanol-D5 in headspace of mouse tumor (MDA-MB-231, KB) and healthy liver biopsies after adding probe; conditions: probe 10^−9, 10^−8 and 10^−6 M
Experimental: Thus, tests during which the tumoral and healthy biopsies were placed in the presence of decreasing concentrations of D5-ethyl-β-D-glucuronide were carried out. The probe concentration retained corresponded to the concentration for which no response of healthy tissues was obtained, whereas an enzymatic response was observed on cancer tissues.
In the context of this work, two tumor biopsies, taken on mouse models, were studied (MDA-MB-231: human breast cancer cells, KB: human nasopharynx cancer cells). Two mouse liver biopsies were used as healthy tissues. Probe solutions at 10^−7, 10^−6, 10^−4 and 10^−2 M were prepared in a PBS buffer (137 mM NaCl, 2.7 mM KCl, 10 mM Na2HPO4, 1.8 mM KH2PO4, pH 7.4).
The biopsies were rinsed with 500 μL of PBS and then placed in a vial with an insert of 2 mL. A volume of 297 μL of PBS was added to the vial. The volatile molecules present in the headspace of the vial were trapped for 30 min in order to ensure that no ethanol-D5 was detected. Then 3 μL of probe at […] were added (final probe concentration in the vial of […]). After hermetic closure and vortex agitation, the volatile compounds were preconcentrated on SPME fiber (Car/PDMS, Supelco) for 30 min and then analyzed by GC-TQMS (analysis conditions described in Table 2).

α-Glucosidase = assay: Plasma protocol: labeled ethanol released in headspace of plasma after adding probe; format: biochemical, human; conditions: Ethanol-D4; Cocktail 1; 10^−3/10^−4 mol·L^−1; Splitless
Source text: (§4) In advance, the enzymatic activities present in the blood samples of 7 healthy volunteers aged 20 to 30 years were studied by means of two cocktails of distinct probes (Table 6). This study had the objective (1) to set the final composition of the cocktails, (2) to define the concentrations of the probes to add to blood samples to obtain a significant isotope response knowing that this response would not be linked to spontaneous hydrolysis of the corresponding probes, (3) to define the optimal kinetic point, (4) to have an idea of the range of response of the isotopes of ethanol in healthy plasma samples.
(§5) Furthermore, two samples per patient were carried out in order to study the potential impact on the enzymatic activities here targeted of holding the samples at room temperature for several hours (an action which can take place in hospital conditions). Thus, the first sample was transformed into plasma and then frozen in the hour following the blood sampling. The second was reserved for 5 h at […], before treatment and then freezing. The samples were all stored at −20° C. until analysis.
as §3

α-Mannosidase = assay: as above; format: biochemical, human; conditions: Ethanol-D5; Cocktail 3; 10^−3/10^−4 mol·L^−1; Splitless
Source text: as §4, §5, §3

SMILES: [2H]C([2H])([2H])C([2H])([2H])O[C@@H]1O[C@H](C(=O)O)[C@@H](O)[C@H](O)[C@H]1O [D5-ethyl-β-D-glucuronide]
- spontaneous hydrolysis when placing in buffer solution [1]: significant spontaneous hydrolysis
- hydrolysis of probe by β-glucuronidase (labeled ethanol signal) (β-glucuronidase [2]): has hydrolyzed its own probe
- hydrolysis of probe by N-acetyl glucosaminidase (labeled ethanol signal) (N-acetyl glucosaminidase): does not hydrolyze
- LOD lower than threshold value of the reference detection method (para-nitrophenol glucuronide, UV) [3]: 100 times
- minimum quantity of detectable enzyme ([3]; plasma matrix): 1.10^−18 mol
- concentration at which β-glucuronidase can be detected in plasma ([3]; plasma, first results): less than 5.10^−13 M
- amount of ethanol-D5 released above plasma of patients with cancer compared to blanks and healthy patients (β-glucuronidase [4]; 11 breast cancer, 11 lung cancer patients, 4 healthy patients): significantly higher
- discernment between healthy patients and cancer patients (β-glucuronidase [4]; cocktail of 4 probes, plasma of breast and lung cancer patients vs 4 healthy): allow clear discernment between healthy patients and cancer patients
- ethanol-D5 release for cancer tissues ([5]; MDA-MB-231 and KB tumor biopsies): release of this isotope was detected
- ethanol-D5 response on healthy tissues ([5]; mouse liver biopsies): no response

SMILES: CCC[C@H]1C[C@H](CC)[C@@H](C)[C@H](C)[C@@H]1C [drawing 22]
- Plasma response range (u.a.) (α-Glucosidase): 0-3000 u.a.

SMILES: CCC[C@H]1C[C@H](CC)[C@@H](C)[C@H](C)[C@@H]1C [drawing 26]
- Plasma response range (u.a.) (α-Mannosidase): 1000-50000 u.a.
